In patent US20160122320A1, “USEFUL COMBINATIONS OF MONOBACTAM ANTIBIOTICS WITH BETA-LACTAMASE INHIBITORS” (Basilea Pharmaceutica AG, priority 2005, published 2016):
Where a name gives a salt, the structure may show the parent alone.

Legend:
Test in all cases: MIC, NCCLS broth microdilution
Type in all cases: cell-based
Enterobacter cloacae P99 = details: for MIC of antibiotic: antibiotic alone, no inhibitor; for MIC of antibiotic at fixed inhibitor concentration (4 mg/L): MIC of antibiotic compound 1 with the labelled bridged monobactam of formula II and clavulanate, 4 mg/L each
[1] = system: Pseudomonas aeruginosa 1973E; details: for MIC of antibiotic: antibiotic alone, no inhibitor; for MIC of antibiotic at fixed inhibitor concentration (4 mg/L): MIC of antibiotic compound 1 with the labelled bridged monobactam of formula II and clavulanate, 4 mg/L each
Method: Antimicrobial activity of the compounds and of their combinations was determined against a selection of organisms according to the standard procedures described by the National Committee for Clinical Laboratory Standards (National Committee for Clinical Laboratory. Standards (2000). Methods for Dilution Antimicrobial Susceptibility Tests for Bacteria That Grow Aerobically-Fifth Edition: Approved Standard M7-A5. NCCLS, Wayne, Pa., USA).
In all cases the final concentration of DMSO incubated with the bacteria is less than or equal to 1%. […] Plates were incubated overnight at an appropriate temperature (30° C. or 37° C.) and optical densities assessed by eye. The MIC value is defined as the lowest compound concentration completely inhibiting visible growth of the test organism. When combinations between compounds of formula I with compounds of formula II and are evaluated the compounds of formula I are tested in dilution series as described above while the compounds of formula II and III-XIII were present in all wells at a constant concentration of 4 μg/mL each.

Acinetobacter sp. J2 = details: for MIC of antibiotic / MIC of antibiotic at fixed inhibitor concentration of 4 mg/L: Acinetobacter baumannii J2; for MIC of antibiotic: antibiotic alone, no inhibitor; for MIC of antibiotic at fixed inhibitor concentration (4 mg/L): Acinetobacter sp. J2, MIC of antibiotic compound 1 with the labelled bridged monobactam of formula II and clavulanate, 4 mg/L each
[2] = system: Klebsiella pneumoniae CF104; details: for MIC of antibiotic: antibiotic alone, no inhibitor; for MIC of antibiotic at fixed inhibitor concentration (4 mg/L): MIC of antibiotic compound 1 with the labelled bridged monobactam of formula II and clavulanate, 4 mg/L each
[3] = system: Pseudomonas aeruginosa MK1184; details: for MIC of antibiotic: antibiotic alone, no inhibitor; for MIC of antibiotic at fixed inhibitor concentration (4 mg/L): MIC of antibiotic compound 1 with the labelled bridged monobactam of formula II and clavulanate, 4 mg/L each
Serratia marcescens S6 = details: for MIC of antibiotic: antibiotic alone, no inhibitor; for MIC of antibiotic at fixed inhibitor concentration (4 mg/L): MIC of antibiotic compound 1 with the labelled bridged monobactam of formula II and clavulanate, 4 mg/L each
[4] = system: Stenotrophomonas malthophilia 1AC736; details: for MIC of antibiotic / MIC of antibiotic at fixed inhibitor concentration of 4 mg/L: Stenotrophomonas maltophilia 1AC736; for MIC of antibiotic: antibiotic alone, no inhibitor; for MIC of antibiotic at fixed inhibitor concentration (4 mg/L): Stenotrophomonas malthophilia 1AC736, MIC of antibiotic compound 1 with the labelled bridged monobactam of formula II and clavulanate, 4 mg/L each

Row | Compound | MIC of antibiotic (Enterobacter cloacae P99) [mg/L] | MIC of antibiotic at fixed inhibitor concentration of 4 mg/L (Enterobacter cloacae P99; with 102 and clavulanate) [mg/L] | MIC of antibiotic [1] [mg/L] | MIC of antibiotic at fixed inhibitor concentration of 4 mg/L ([1]; with 102 and clavulanate) [mg/L] | MIC of antibiotic (Acinetobacter sp. J2) [mg/L] | MIC of antibiotic at fixed inhibitor concentration of 4 mg/L (Acinetobacter sp. J2; with 102 and clavulanate) [mg/L] | MIC of antibiotic [2] [mg/L] | MIC of antibiotic at fixed inhibitor concentration of 4 mg/L ([2]; with 102 and clavulanate) [mg/L] | MIC of antibiotic [3] [mg/L] | MIC of antibiotic at fixed inhibitor concentration of 4 mg/L ([3]; with 102 and clavulanate) [mg/L] | MIC of antibiotic (Serratia marcescens S6) [mg/L] | MIC of antibiotic at fixed inhibitor concentration of 4 mg/L (Serratia marcescens S6; with 102 and clavulanate) [mg/L] | MIC of antibiotic [4] [mg/L] | MIC of antibiotic at fixed inhibitor concentration (4 mg/L) (Enterobacter cloacae P99) [mg/L] | MIC of antibiotic at fixed inhibitor concentration (4 mg/L) [1] [mg/L] | MIC of antibiotic at fixed inhibitor concentration (4 mg/L) (Acinetobacter sp. J2) [mg/L] | MIC of antibiotic at fixed inhibitor concentration (4 mg/L) [2] [mg/L] | MIC of antibiotic at fixed inhibitor concentration (4 mg/L) [3] [mg/L] | MIC of antibiotic at fixed inhibitor concentration (4 mg/L) (Serratia marcescens S6) [mg/L] | MIC of antibiotic at fixed inhibitor concentration (4 mg/L) [4] [mg/L] | further results
1 | O=C(C[n+]1cccc(Cc2ccccc2)c1)N1CC[C@@H]2[C@H]1C(=O)N2S(=O)(=O)[O-] [Compound 123, (1S,5R)-7-oxo-2-{2-[3-benzylpyridinium]acetyl}-2,6-diazabicyclo[3.2.0]heptane-6-sulfonate, inner salt] |  |  |  |  |  |  |  |  |  |  |  |  |  | 32 | 4 | >32 | 0.125 | 32 | 0.25 | 0.125 | 
2 | O=C(Nc1ccc(O)cc1)N1CC[C@@H]2[C@H]1C(=O)N2S(=O)(=O)[O-].[Na+] [Compound 316] |  |  |  |  |  |  |  |  |  |  |  |  |  | 8 | 4 | 16 | 0.5 | 32 | 0.25 | 0.125 | 
3 | O=C(Nc1ccc2[nH]c(=O)[nH]c2c1)N1CC[C@@H]2[C@H]1C(=O)N2S(=O)(=O)[O-].[Na+] [Compound 319, Sodium(1S,5R)-7-oxo-2-[N-(2-oxo(3-hydrobenzimidazol-5-yl))carbamoyl]-2,6-diazabicyclo[3.2.0]heptane-6-sulfonate] |  |  |  |  |  |  |  |  |  |  |  |  |  | 16 | 4 | >32 | 0.25 | >32 | 0.25 | 0.125 | 
4 | COC(=O)c1ccc[n+](CC(=O)N2CC[C@@H]3[C@H]2C(=O)N3S(=O)(=O)[O-])c1 [Compound 116, (1S,5R)-2-{2-[3-(methoxycarbonyl)pyridinium]acetyl}-7-oxo-2,6-diazabicyclo[3.2.0]heptane-6-sulfonate, inner salt] |  |  |  |  |  |  |  |  |  |  |  |  |  | 32 | 16 | 16 | 0.5 | 8 | 0.25 | 0.125 | 
5 | O=C(C[n+]1cccc(-c2ccccc2)c1)N1CC[C@@H]2[C@H]1C(=O)N2S(=O)(=O)[O-] [Compound 124, (1S,5R)-7-oxo-2-[2-(3-phenylpyridinium)acetyl]-2,6-diazabicyclo[3.2.0]heptane-6-sulfonate, inner salt] |  |  |  |  |  |  |  |  |  |  |  |  |  | 32 | 8 | >32 | 0.125 | 32 | 0.25 | 0.125 | 

Continued, in another order:

Row | MIC of antibiotic (Enterobacter cloacae P99) [mg/L] | MIC of antibiotic at fixed inhibitor concentration of 4 mg/L (Enterobacter cloacae P99; with 102 and clavulanate) [mg/L] | MIC of antibiotic [1] [mg/L] | MIC of antibiotic at fixed inhibitor concentration of 4 mg/L ([1]; with 102 and clavulanate) [mg/L] | MIC of antibiotic (Acinetobacter sp. J2) [mg/L] | MIC of antibiotic at fixed inhibitor concentration of 4 mg/L (Acinetobacter sp. J2; with 102 and clavulanate) [mg/L] | MIC of antibiotic [2] [mg/L] | MIC of antibiotic at fixed inhibitor concentration of 4 mg/L ([2]; with 102 and clavulanate) [mg/L] | MIC of antibiotic [3] [mg/L] | MIC of antibiotic at fixed inhibitor concentration of 4 mg/L ([3]; with 102 and clavulanate) [mg/L] | MIC of antibiotic (Serratia marcescens S6) [mg/L] | MIC of antibiotic at fixed inhibitor concentration of 4 mg/L (Serratia marcescens S6; with 102 and clavulanate) [mg/L] | MIC of antibiotic [4] [mg/L] | MIC of antibiotic at fixed inhibitor concentration (4 mg/L) (Enterobacter cloacae P99) [mg/L] | MIC of antibiotic at fixed inhibitor concentration (4 mg/L) [1] [mg/L] | MIC of antibiotic at fixed inhibitor concentration (4 mg/L) (Acinetobacter sp. J2) [mg/L] | MIC of antibiotic at fixed inhibitor concentration (4 mg/L) [2] [mg/L] | MIC of antibiotic at fixed inhibitor concentration (4 mg/L) [3] [mg/L] | MIC of antibiotic at fixed inhibitor concentration (4 mg/L) (Serratia marcescens S6) [mg/L] | MIC of antibiotic at fixed inhibitor concentration (4 mg/L) [4] [mg/L] | Compound | further results
6 | 32 | 4 | 32 | 16 | >32 | 16 | 2 | 0.5 | 32 | 16 | 0.5 | 0.25 | 2 |  |  |  |  |  |  |  | CC1(C)C(NC(=O)C(=NOCc2cc(=O)c(O)cn2O)c2csc(N)n2)C(=O)N1OCC(=O)O (stereo not drawn) [Compound 33] | MIC of antibiotic at fixed inhibitor concentration of 4 mg/L (Enterobacter cloacae P99; with 324 and clavulanate): 16 mg/L; MIC of antibiotic at fixed inhibitor concentration of 4 mg/L ([1]; with 324 and clavulanate): 16 mg/L; MIC of antibiotic at fixed inhibitor concentration of 4 mg/L (Acinetobacter sp. J2; with 324 and clavulanate): 8 mg/L; MIC of antibiotic at fixed inhibitor concentration of 4 mg/L ([2]; with 324 and clavulanate): 0.5 mg/L; MIC of antibiotic at fixed inhibitor concentration of 4 mg/L ([3]; with 324 and clavulanate): 32 mg/L; MIC of antibiotic at fixed inhibitor concentration of 4 mg/L (Serratia marcescens S6; with 324 and clavulanate): 0.25 mg/L; MIC of antibiotic at fixed inhibitor concentration of 4 mg/L ([4]; with 102 and clavulanate): 2 mg/L; MIC of antibiotic at fixed inhibitor concentration of 4 mg/L ([4]; with 324 and clavulanate): 2 mg/L
7 | >32 | 8 | 16 | 4 | >32 | 16 | >32 | 0.5 | >32 | 4 | 1 | 1 | 4 |  |  |  |  |  |  |  | NC(=O)OCC1C(NC(=O)C(=NOCc2cc(=O)c(O)cn2O)c2csc(N)n2)C(=O)N1OS(=O)(=O)O (stereo not drawn) [Compound 25] | MIC of antibiotic at fixed inhibitor concentration of 4 mg/L (Enterobacter cloacae P99; with 324 and clavulanate): 4 mg/L; MIC of antibiotic at fixed inhibitor concentration of 4 mg/L ([1]; with 324 and clavulanate): 8 mg/L; MIC of antibiotic at fixed inhibitor concentration of 4 mg/L (Acinetobacter sp. J2; with 324 and clavulanate): >32 mg/L; MIC of antibiotic at fixed inhibitor concentration of 4 mg/L ([2]; with 324 and clavulanate): 0.5 mg/L; MIC of antibiotic at fixed inhibitor concentration of 4 mg/L ([3]; with 324 and clavulanate): 8 mg/L; MIC of antibiotic at fixed inhibitor concentration of 4 mg/L (Serratia marcescens S6; with 324 and clavulanate): 1 mg/L; MIC of antibiotic at fixed inhibitor concentration of 4 mg/L ([4]; with 102 and clavulanate): 1 mg/L; MIC of antibiotic at fixed inhibitor concentration of 4 mg/L ([4]; with 324 and clavulanate): 1 mg/L
8 | 16 | 8 | >32 | >32 | >32 | >32 | >32 | <0.06 | >32 | >32 | 4 | 0.5 | 8 |  |  |  |  |  |  |  | C[C@H]1[C@H](NC(=O)/C(=N\OCc2cc(=O)c(O)cn2C)c2csc(N)n2)C(=O)N1S(=O)(=O)O [Compound 6, (3S,4S)-3-{(2Z)-2-(2-amino(1,3-thiazol-4-yl))-3-[(5-hydroxy-1-methyl-4-oxo(2-hydropyridyl))methoxy]-3-azaprop-2-enoylamino}-4-methyl-2-oxoazetidinesulfonic acid] | MIC of antibiotic at fixed inhibitor concentration of 4 mg/L (Enterobacter cloacae P99; with 206 and clavulanate): 16 mg/L; MIC of antibiotic at fixed inhibitor concentration of 4 mg/L (Enterobacter cloacae P99; with 315 and clavulanate): 4 mg/L; MIC of antibiotic at fixed inhibitor concentration of 4 mg/L ([1]; with 206 and clavulanate): >32 mg/L; MIC of antibiotic at fixed inhibitor concentration of 4 mg/L ([1]; with 315 and clavulanate): >32 mg/L; MIC of antibiotic at fixed inhibitor concentration of 4 mg/L (Acinetobacter sp. J2; with 206 and clavulanate): 32 mg/L; MIC of antibiotic at fixed inhibitor concentration of 4 mg/L (Acinetobacter sp. J2; with 315 and clavulanate): >32 mg/L; MIC of antibiotic at fixed inhibitor concentration of 4 mg/L ([2]; with 206 and clavulanate): 0.5 mg/L; MIC of antibiotic at fixed inhibitor concentration of 4 mg/L ([2]; with 315 and clavulanate): 0.5 mg/L; MIC of antibiotic at fixed inhibitor concentration of 4 mg/L ([3]; with 206 and clavulanate): >32 mg/L; MIC of antibiotic at fixed inhibitor concentration of 4 mg/L ([3]; with 315 and clavulanate): >32 mg/L; MIC of antibiotic at fixed inhibitor concentration of 4 mg/L (Serratia marcescens S6; with 206 and clavulanate): 4 mg/L; MIC of antibiotic at fixed inhibitor concentration of 4 mg/L (Serratia marcescens S6; with 315 and clavulanate): 4 mg/L; MIC of antibiotic at fixed inhibitor concentration of 4 mg/L ([4]; with 102 and clavulanate): 4 mg/L; MIC of antibiotic at fixed inhibitor concentration of 4 mg/L ([4]; with 206 and clavulanate): 4 mg/L; MIC of antibiotic at fixed inhibitor concentration of 4 mg/L ([4]; with 315 and clavulanate): 2 mg/L
